Measured values: article PMC6327263, “Evaluation of Novel 3-Hydroxyflavone Analogues as HDAC Inhibitors against Colorectal Cancer” (Advances in Pharmacological Sciences, 2018)
Where “and” joins values, the source holds several entries; their conditions need not be identical. Equal entries are not always repeated. Marks after values point to notes of the source that are not given here.

Legend:
DMH-induced colon cancer = assay type: in vivo, Wistar rats; details: 5-FU 10 mg/kg i.p.
Description: The two test compounds (QMJ-2 and QMJ-5) and quercetin were suspended in 0.25% w/v sodium carboxymethyl cellulose (CMC) and were administered orally (p.o.). 5-Fluorouracil (5-FU) which was used as a standard was procured in the form of injection and was administered intraperitonially (i.p.).
Colon cancer in experimental animals was induced using the highly specific carcinogen DMH, with few modifications from the previously described procedure. DMH was administered at a dose of 30 mg/kg i.p. once a week for 20 weeks. The incidence of aberrant crypt foci (ACF) and adenocarcinoma were confirmed by sacrificing few animals after 20 weeks of induction with DMH. Furthermore, the animals were randomized into five experimental groups, and various treatments were administered for a period of 21 days followed by the assessment of different parameters in the experimental animals.
(1) Experimental Groups • Group 1: animals received 0.25% CMC in water p.o. • Group 2: animals received 0.25% CMC in water p.o. (DMH control) • Group 3: animals received 5-FU at 10 mg/kg i.p. • Group 4: animals received quercetin at 100 mg/kg p.o. • Group 5: animals received QMJ-2 at 100 mg/kg p.o. • Group 6: animals received QMJ-5 at 100 mg/kg p.o.
(2) ACF Formation and Adenocarcinoma Incidence. The entire colon was excised from the experimental animals and was used to study the incidence of adenocarcinoma. The count and size were noted from each animal. For ACF formation, the distal part of the colon was excised, and the tissue was then cut open and fixed with 10% buffered formalin for 12 h. Following this, the tissue was stained with 0.1% methylene blue in PBS for 5 min. The tissues were then observed under microscope for ACF formation and were calculated as the number of counts/5 cm^2 in colon tissue.
(3) Colon Weight/Length Ratio and Organ Index. Length of the excised colon was measured in centimeters, and weight was measured in g. Colon weight/length ratio was then calculated. For the determination of organ index, major organs including spleen, liver, and kidney of the experimental animals were weighed in g and the respective index was calculated. […]

HCT116 cells [1] = experiment: MTT cytotoxicity assay, HCT116; assay type: cell-based, human; details: Homo sapiens, HCT-116, 48 h, mean ± SEM of three experiments
Description: (§1) Human colorectal carcinoma cell line (HCT116) and African green monkey kidney epithelial cells (VERO) were obtained from National Centre for Cell Science, Pune, MH, India. For their maintenance, the cells were grown in Dulbecco's Modified Eagle's Medium (DMEM) which was supplemented with 10% fetal bovine serum (FBS) and 1 × penicillin/streptomycin at 37°C in CO2 incubator (NU-5501E/G, NuAire Inc., Plymouth, MN, USA) in a humidified atmosphere of 5% CO2 and 95% air.
(§2) Cytotoxicity for the synthesized analogues was determined using MTT assay. In brief, HCT116 and VERO cells were harvested from the tissue culture flask and seeded in sterile 96 well plates at a density of 5000 cells per well. After overnight adherence, different concentrations of test compounds were added and incubated for 48 h. Next, 50 µl of the MTT reagent (HiMedia Laboratories, Mumbai, India) (2 mg/ml in the sterile phosphate buffer saline (PBS)) was added into each well and incubated for 3 h. The formazan crystals formed were solubilized using 100% dimethyl sulfoxide (DMSO), and the optical density was measured at 540 nm using the microplate reader (ELx800, BioTek Instruments Inc., Winooski, VT, USA).

VERO cells = experiment: MTT cytotoxicity assay, Vero; assay type: cell-based, African green monkey; details: Chlorocebus sabaeus, 48 h, mean ± SEM of three experiments
Description: as §1, §2

[2] = test system: HDAC enzyme in HCT116 cells; experiment: Whole cell HDAC inhibition assay; assay type: cell-based; details: Homo sapiens, HCT-116, HCT116, 18 h treatment, mean ± SEM of three experiments
Description: Confluent HCT116 cells were harvested and seeded in 96 well sterile black well plates at a density of 2000 cells per well and incubated overnight. Furthermore, the cells were treated with different concentrations of test compounds for a period of 18 h followed by the addition of […] BOC-Ac-Lys-AMC substrate and incubated for 1 h. […] The reaction was then allowed to proceed for 15 min at 37°C. Finally, the fluorescence intensity was measured at 360 nm excitation and 460 nm emission using a fluorescence microplate reader (FLx800, BioTek Instruments Inc., Winooski, VT, USA).

HCT116 cells [3] = experiment: Cell cycle analysis; assay type: cell-based, human; details: HCT116, 48 h; SAHA 5 µM, quercetin 100 µM, QMJ-2 100 µM, QMJ-5 50 µM; normal control 29.2%
Description: Cell cycle analysis was performed to estimate the effect of synthesized analogues on the different phases of the cell cycle. In brief, 1 × 10^6 cells were seeded in the cell culture dish and allowed to attach overnight followed by incubation with test compounds. After 48 h, the cells were detached by trypsinization, centrifuged, and washed with PBS. The cell pellets were fixed in 70% v/v ice cold ethanol and stored at −20°C for 24 h. After fixing, the pellets were dislodged in PBS and stained with propidium iodide solution and analyzed using Accuri C6 flow cytometer (BD Biosciences, San Jose, CA, USA).

HDAC8 = experiment: Western blotting, HDAC8 expression; assay type: cell-based, human; details: HCT116 cells, 24 h, compared to normal control
Description: (§3) After various treatments for 24 h, cells were lysed, and protein quantification of the lysates was estimated using the BCA™ kit (Thermo Fisher Scientific Inc., Waltham, MA, USA). Proteins samples (30 µg) were resolved on a 10% SDS-PAGE and transferred onto a PVDF membrane and blocked with 5% nonfat milk in TBST (tris-buffered saline with Tween-20) buffer for 1 h followed by washing in TBST buffer. The membrane was then probed with primary antibodies (GAPDH, HDAC8, p21^Waf1/Cip1, and acetyl-histone H3[Ac-Lys^9]) and incubated overnight at 4°C. The membrane was washed with TBST buffer and incubated with horseradish peroxidase-conjugated secondary antibody for 1 h at room temperature. Signal was captured using SuperSignal™ West Pico Plus chemiluminescent substrate (Thermo Fischer Scientific Inc., Waltham, MA, USA) on gel documentation system (G : BOX Chemi XRQ, Syngene).

p21^Waf1/Cip1 = experiment: Western blotting, p21Waf1/Cip1 expression; assay type: cell-based, human; details: HCT116 cells, 24 h, compared to normal control
Description: as §3

acetyl histone H3K9 = experiment: Western blotting, acetyl histone H3K9 expression; assay type: cell-based, human; details: HCT116 cells, 24 h, compared to normal control
Description: as §3, with “Syngene). The protein band densities were estimated using the software ImageJ (version 1.46r, NIH, Bethesda, MD, USA).” for “Syngene).”

[4] = test system: caspase 3/7 in HCT116 cells; experiment: Caspase 3/7 activation assay; assay type: cell-based, human; details: SAHA 5 µM, quercetin 100 µM, QMJ-2 100 µM, QMJ-5 50 µM, normal control 24.60%
Description: The downstream signaling pathway of apoptosis was determined using the caspase 3/7 activation assay. In brief, as per the caspase 3/7 activation kit protocol (#MCH100108), 1 × 10^6 cells were seeded in the cell culture dish and after overnight adherence, were incubated with the test compounds. The cells were detached by trypsinization, centrifuged, and washed with PBS. Cell suspension (50 µl) was mixed with the caspase 3/7 antibody reagent (5 µl) and incubated at 37°C temperature for 30 min. 7-AAD (7-amino-actinomycin D) working solution (150 µl) was added, and stained cells were then analyzed in Muse Cell Analyzer (#0500-3115 Merck Millipore).

HCT116 cells [5] = experiment: Annexin V staining; assay type: cell-based, human; details: SAHA 5 µM, quercetin 100 µM, QMJ-2 100 µM, QMJ-5 50 µM, normal control 21.30%
Description: Mechanism of cell death induced by synthesized analogues was determined using annexin V staining. In brief, as per annexin V flow cytometry kit protocol (#MCH100105), 1 × 10^6 cells were seeded in a cell culture dish and after overnight adherence, were incubated with test compounds. Cells were then detached by trypsinization, centrifuged, and washed with PBS. Cell suspension (100 µl) was mixed with Muse annexin V reagent (100 µl) and incubated for 20 min at room temperature. The stained cells were quantitatively analyzed for live, early, and late apoptosis using Muse cell analyzer (#0500-3115 Merck Millipore).

| SMILES | IC50 [2] [µM] | IC50 (HCT116 cells [1]) [µM] | IC50 (VERO cells) [µM] | further results |
| --- | --- | --- | --- | --- |
| O=c1[nH]cc(F)c(=O)[nH]1 [5-FU, 5-Fluorouracil, reference compound] | – | – | – | ACF/5 cm^2 (DMH-induced colon cancer; 21 days treatment, quercetin, QMJ-2, QMJ-5 100 mg/kg p.o., DMH control 25 ± 2.1, mean ± SEM of six animals): 10 ± 1.3 /5 cm^2 and 10 ± 1.3^a /5 cm^2; colon weight/length ratio (DMH-induced colon cancer; compared with DMH control, others 100 mg/kg p.o., 21 days): significantly (p < 0.05) reduced; Adenocarcinoma (DMH-induced colon cancer; count in colon, 21 days treatment, quercetin, QMJ-2, QMJ-5 100 mg/kg p.o., DMH control 17 ± 1.7, mean ± SEM of six animals): 8 ± 1.1^a |
| O=C(CCCCCCC(=O)Nc1ccccc1)NO [SAHA, reference compound] | – | – | – | percentage of cells in G2/M phase (HCT116 cells [3]): 37.5%; HDAC8 expression (HDAC8): significant reduction; expression of p21^Waf1/Cip1 (p21^Waf1/Cip1): increased; expression of acetylated histone H3K9 (acetyl histone H3K9): significant increase; percentage of apoptotic cells (Apoptotic/Dead, caspase 3/7) [4]: 56.30%; percentage of cells undergoing late apoptosis (Late Apop./Dead, annexin V) (HCT116 cells [5]): 27.65% |

The next lines start with results.

| IC50 [2] [µM] | SMILES | IC50 (HCT116 cells [1]) [µM] | IC50 (VERO cells) [µM] | further results |
| --- | --- | --- | --- | --- |
| 1023 ± 5.2 | CN(C)c1ccc(-c2oc3ccccc3c(=O)c2O)cc1 [QMJ-1, 2-[4(Dimethylamino)phenyl]-3-hydroxy-4H-1-benzopyran-4-one] | 102 ± 1.8 | 186 ± 4.9 | – |
| 1124 ± 6.2 | Cc1ccc2oc(-c3ccc(N(C)C)cc3)c(O)c(=O)c2c1 [QMJ-3, 2-[4-(Dimethylamino)phenyl]-3-hydroxy-6-methyl-4H-1-benzopyran-4-one] | 70.3 ± 4.1 | 80.1 ± 3.7 | – |
| 1011 ± 3.4 | Cc1ccc(-c2oc3ccc(C)cc3c(=O)c2O)cc1 [QMJ-4, 3-Hydroxy-6-methyl-2-(4-methylphenyl)-4H-1-benzopyran-4-one] | > 400 | > 400 | – |
| 984.2 ± 2.5 | COc1ccc2c(=O)c(O)c(-c3ccc(C)cc3)oc2c1 [QMJ-6, 3-Hydroxy-7-methoxy-2-(4-methylphenyl)-4H-1-benzopyran-4-one] | 94 ± 2.1 | 153 ± 2.3 | – |
